Results: the supplement of paper PMC10307832

Legend:
Assay in all cases: relative viability (nuclei count vs DMSO), 5 days (fraction); higher = more cells survive
[1] = system: COR-L23
How it was run: (§1)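 Dosing by pin tool came one day after lung cancer cell lines were seeded in 1536-well plates, using either one drug or a fixed anchor-drug dose plus five library-drug doses (not always all listed) in √10 steps. After 5 days, nuclei were counted on 4× images. Relative viability is treated-well nuclei count divided by vehicle-well nuclei count, and values are medians of duplicate plates.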

[2] = system: ChaGo-K-1
How it was run: as §1

[3] = system: EPLC-272H
How it was run: as §1

[4] = system: H3255
How it was run: as §1

[5] = system: HARA
How it was run: as §1

[6] = system: HOP-62
How it was run: as §1

[7] = system: LCLC-97TM1
How it was run: as §1

[8] = system: LXF-289
How it was run: as §1

[9] = system: NCI-H1395
How it was run: as §1

[10] = system: NCI-H1437
How it was run: as §1

[11] = system: NCI-H1650
How it was run: as §1

[12] = system: NCI-H1666
How it was run: as §1

[13] = system: NCI-H1793
How it was run: as §1

[14] = system: NCI-H1944
How it was run: as §1

[15] = system: NCI-H2085
How it was run: as §1

[16] = system: NCI-H2087
How it was run: as §1

[17] = system: NCI-H2126
How it was run: as §1

[18] = system: NCI-H3122
How it was run: as §1

[19] = system: NCI-H441
How it was run: as §1

[20] = system: NCI-H596
How it was run: as §1

[21] = system: NCI-H661
How it was run: as §1

[22] = system: PC-14
How it was run: as §1

CN1CCN(CCOc2cc(OC3CCOCC3)c3c(Nc4c(Cl)ccc5c4OCO5)ncnc3c2)CC1 [Saracatinib] + CCNC(=O)c1noc(-c2cc(C(C)C)c(O)cc2O)c1-c1ccc(CN2CCOCC2)cc1 [Luminespib] (partner 0.01 µM)
relative viability ([1]; first compound 0.02 µM): 0.694
relative viability ([1]; first compound 0.2 µM): 0.605
relative viability ([1]; first compound 0.6325 µM): 0.575
relative viability ([1]; first compound 2 µM): 0.558
relative viability ([2]; first compound 0.02 µM): 0.663
relative viability ([2]; first compound 0.2 µM): 0.388
relative viability ([2]; first compound 0.6325 µM): 0.7
relative viability ([2]; first compound 2 µM): 0.555
relative viability ([3]; first compound 0.02 µM): 0.24
relative viability ([3]; first compound 0.2 µM): 0.382
relative viability ([3]; first compound 0.6325 µM): 0.123
relative viability ([3]; first compound 2 µM): 0.197
relative viability ([4]; first compound 0.02 µM): 0.91
relative viability ([4]; first compound 0.2 µM): 0.914
relative viability ([4]; first compound 0.6325 µM): 0.745
relative viability ([4]; first compound 2 µM): 0.477
relative viability ([5]; first compound 0.02 µM): 0.686
relative viability ([5]; first compound 0.2 µM): 0.606
relative viability ([5]; first compound 0.6325 µM): 0.485
relative viability ([5]; first compound 2 µM): 0.367
relative viability ([6]; first compound 0.02 µM): 0.864
relative viability ([6]; first compound 0.2 µM): 0.852
relative viability ([6]; first compound 0.6325 µM): 1.04
relative viability ([6]; first compound 2 µM): 1.02
relative viability ([7]; first compound 0.02 µM): 0.8
relative viability ([7]; first compound 0.2 µM): 0.47
relative viability ([7]; first compound 0.6325 µM): 0.725
relative viability ([7]; first compound 2 µM): 0.444
relative viability ([8]; first compound 0.02 µM): 0.619
relative viability ([8]; first compound 0.2 µM): 0.633
relative viability ([8]; first compound 0.6325 µM): 0.796
relative viability ([8]; first compound 2 µM): 0.585
relative viability ([9]; first compound 0.02 µM): 0.621
relative viability ([9]; first compound 0.2 µM): 0.634
relative viability ([9]; first compound 0.6325 µM): 0.79
relative viability ([9]; first compound 2 µM): 0.62
relative viability ([10]; first compound 0.02 µM): 1.13
relative viability ([10]; first compound 0.2 µM): 1.13
relative viability ([10]; first compound 0.6325 µM): 1.17
relative viability ([10]; first compound 2 µM): 1.14
relative viability ([11]; first compound 0.02 µM): 0.188
relative viability ([11]; first compound 0.2 µM): 0.187
relative viability ([11]; first compound 0.6325 µM): 0.188
relative viability ([11]; first compound 2 µM): 0.221
relative viability ([12]; first compound 0.02 µM): 1.01
relative viability ([12]; first compound 0.2 µM): 1.09
relative viability ([12]; first compound 0.6325 µM): 1.4
relative viability ([12]; first compound 2 µM): 1.15
relative viability ([13]; first compound 0.02 µM): 0.2
relative viability ([13]; first compound 0.6325 µM): 0.173
relative viability ([13]; first compound 2 µM): 0.177
relative viability ([14]; first compound 0.02 µM): 0.826
relative viability ([14]; first compound 0.6325 µM): 0.846
relative viability ([14]; first compound 2 µM): 0.459
relative viability ([15]; first compound 0.02 µM): 0.411
relative viability ([15]; first compound 0.2 µM): 0.347
relative viability ([15]; first compound 0.6325 µM): 0.481
relative viability ([15]; first compound 2 µM): 0.429
relative viability ([16]; first compound 0.02 µM): 0.143
relative viability ([16]; first compound 0.2 µM): 0.18
relative viability ([16]; first compound 0.6325 µM): 0.166
relative viability ([16]; first compound 2 µM): 0.253
relative viability ([17]; first compound 0.02 µM): 0.878
relative viability ([17]; first compound 0.2 µM): 0.895
relative viability ([17]; first compound 0.6325 µM): 0.852
relative viability ([17]; first compound 2 µM): 0.655
relative viability ([18]; first compound 0.02 µM): 0.0855
relative viability ([18]; first compound 0.2 µM): 0.103
relative viability ([18]; first compound 0.6325 µM): 0.0549
relative viability ([18]; first compound 2 µM): 0.076
relative viability ([19]; first compound 0.02 µM): 0.44
relative viability ([19]; first compound 0.2 µM): 0.268
relative viability ([19]; first compound 0.6325 µM): 0.286
relative viability ([19]; first compound 2 µM): 0.247
relative viability ([20]; first compound 0.02 µM): 1.01
relative viability ([20]; first compound 0.2 µM): 0.74
relative viability ([20]; first compound 0.6325 µM): 0.84
relative viability ([20]; first compound 2 µM): 0.715
relative viability ([21]; first compound 0.02 µM): 0.948
relative viability ([21]; first compound 0.2 µM): 0.921
relative viability ([21]; first compound 0.6325 µM): 0.943
relative viability ([21]; first compound 2 µM): 0.771
relative viability ([22]; first compound 0.02 µM): 0.175
relative viability ([22]; first compound 0.2 µM): 0.183
relative viability ([22]; first compound 0.6325 µM): 0.173
relative viability ([22]; first compound 2 µM): 0.227
